# Data taken from PMC12562324, “Surfactin Structural Variants Differentially Modulate Plant Immune Responses” (Biomolecules, 2025).
# Legend:
# [1] = test system: Arabidopsis thaliana root protoplasts; assay: NO burst in root protoplasts, DAF-DA probe; type: cell-based; conditions: 10 µM, fold change at 20 min vs mock; n = 12; Figure 3C; in roots Srf and Liche increased NO, Pumi had no impact
# Description: Two-week-old Arabidopsis thaliana seedling roots (from 27 mg seeds) were collected and were cut into 1–2 mm segments and incubated in a protoplasting solution (20 mM MES pH 5.7, 0.4 M mannitol, 20 mM KCl, 10 mM CaCl2, 0.1% (w/v) BSA, 1.5% (w/v) cellulase R10 (Duchefa Biochemie, Haarlem, The Netherlands), 0.4% (w/v) macerozyme R10 (Duchefa Chimie)) for 3 h at room temperature and in the dark. After incubation, 1 mL of solution A (154 mM NaCl, 5 mM KCl, 125 mM CaCl2, 4 mM MES, pH = 5.7) was added inside. The suspension was agitated gently and filtered by a 70 µm pore filter to remove extra root debris. Filtered suspension was centrifuged at 850 g for 6 min at room temperature, and the pelleted protoplasts were rinsed three times with solution B (4 mM MES pH 5.7, 154 mM NaCl, 125 mM CaCl2, 5 mM KCl) before being resuspended in solution C (2 mM MES pH 5.7, 0.5 M mannitol, 20 mM KCl, 2 mM CaCl2) at a working concentration of 1–2 × 10^5 cells per mL. For the detection of intracellular NO, roots were processed as described above and 200 µL sterile water was replaced by 200 µL 5 μM DAF-DA in a buffered solution (10 mM Tris/HCl, pH = 7.4). Roots were incubated at room temperature for 1 h in the absence of light and then washed 3 times with Tris/HCl (10 mM, pH = 7.4). The fluorescence emitted by DAF-DA was detected by excitation at 495 nm and emission at 515 nm. Experiments where NO was measured after pretreatment with the calcium channel blocker or calcium chelator included an additional step where LaCl3 (10 mM; Merck Chemicals SA, Hoeilaart, Belgium) or EGTA (1 mM; Merck Chemicals SA, Hoeilaart, Belgium) was added three minutes before treatments. Data were processed as described above for ROS. For NO measurements in protoplasts, the suspension was incubated in the same conditions before being distributed (50 µL) in microplate wells and treated with the CLPs at a 10 µM final concentration or with 0.1% DMSO as a mock.
# [2] = test system: Arabidopsis thaliana roots; assay: Intracellular NO (RNS burst) in roots, DAF-DA probe; type: cell-based; conditions: for NO accumulation in roots vs mock: 10 µM, DAF-DA fluorescence fold change at 20 min vs mock (DMSO 0.1%), n = 12 from three independent experiments, Figure 3A,B
# Description: For the detection of intracellular NO, roots were processed as described above and 200 µL sterile water was replaced by 200 µL 5 μM DAF-DA in a buffered solution (10 mM Tris/HCl, pH = 7.4). Roots were incubated at room temperature for 1 h in the absence of light and then washed 3 times with Tris/HCl (10 mM, pH = 7.4). The fluorescence emitted by DAF-DA was detected by excitation at 495 nm and emission at 515 nm. Experiments where NO was measured after pretreatment with the calcium channel blocker or calcium chelator included an additional step where LaCl3 (10 mM; Merck Chemicals SA, Hoeilaart, Belgium) or EGTA (1 mM; Merck Chemicals SA, Hoeilaart, Belgium) was added three minutes before treatments. Data were processed as described above for ROS. For NO measurements in protoplasts, the suspension was incubated in the same conditions before being distributed (50 µL) in microplate wells and treated with the CLPs at a 10 µM final concentration or with 0.1% DMSO as a mock.
# [3] = UPLC-MS retention on C18 as relative hydrophobicity; type: physicochemical; conditions: chromatographic, C18 (BEH C18 1.7 µm), water/ACN with 0.1% TFA gradient, 40 °C; order of homologue groups Srf, Liche, Pumi; Figure 1B,D,F
# Text: The purified material was freeze-dried (lyophilisator Martin Christ alpha 3–4 LSC BASIC) before storage. All the CLPs used in this research were freshly prepared from powder before each experiment. The concentration of Liche or Pumi was referred to the concentration of Srf and determined by MassHunter Workstation software (version B.09.00) after data collection from an Agilent Technologies 1290 Infinity (Santa Clara, CA, USA), with a C18 reversed-phase column (waters acquity premier BEH C18 1.7 µm 2.1 mm × 50 mm) being used at a flow rate of 0.6 mL/min and a temperature of 40 °C. […] That was coupled with a mass detector (Agilent Technologies 6530 Accurate-Mass Q-TOF LC/MS, Santa Clara, CA, USA) in positive mode, with the parameters set up as follows: drying gas temperature of 300 °C, drying gas of 8 L/min, nebulizer of 35 psi, sheath gas temperature of 350 °C, flow rate of sheath gas of 11 L/min, capillary voltage of 3.5 kV, nozzle voltage (expt) of 1 kV, fragmentor voltage of 175 V, skimmer voltage of 65 V, and octopole radiofrequency of 750 V. Accurate mass spectra were recorded in the m/z range of 100–1700. […]
# MYB72 = assay: Coumarin pathway reporter line pMYB72:GFP-GUS; type: cell-based, Arabidopsis thaliana; conditions: 10 µM Srf, 20 min post treatment, vs mock; n = 9 from three independent experiments; p < 0.05; Figure 6A
# Description: Seedlings of the Arabidopsis thaliana reporter lines pMYB72:GFP-GUS and pBGLU42:GFP-GUS were germinated and cultivated for seven days under the aforementioned conditions. Uniform plantlets were then transferred to 96-well optical bottom black microplates (Greiner 96 µClear, Thermo Fisher Scientific, Hampton, VA, USA). Each well contained 150 µL of the hydroponic solution. Following transfer, the microplates were sealed and incubated in a growth chamber under controlled conditions (22 °C with a 12 h photoperiod). On the fifth day of this incubation, the plates were treated by adding 150 µL of either the CLP solution or a mock control to each well. Fluorescence measurements were subsequently acquired using a Spark microplate reader and configured with an excitation wavelength of 485 nm and an emission wavelength of 530 nm. Data were collected with nine measurement points acquired per well to ensure robustness.
Substance,"NO burst in root protoplasts, trend compared to roots [1]",NO accumulation in roots vs mock [2],UPLC-MS elution order (relative hydrophobicity) [3],"Srf-induced RNS (NO burst) in roots after pretreatment with Ca2+ chelator EGTA ([2]; EGTA 1 mM added three minutes before treatment, over 50 min, n = 8 from two independent experiments, Figure 4D)","Srf-induced RNS (NO burst) in roots after pretreatment with Ca2+ channel blocker LaCl3 ([2]; LaCl3 10 mM added three minutes before treatment, over 50 min, n = 8 from two independent experiments, Figure 4C)",MYB72 expression in roots of reporter line (GFP fluorescence) (MYB72)
lichenysin,very similar trend,,,,,
pumilacidin,very similar trend,no impact,then Pumi,,,
surfactin [Srf],very similar trend,fast accumulation of NO,eluted first,abolished,abolished,significant upregulation
